Experiments:
zebrafish neuromast HCs [1] = test: Zebrafish lateral-line neuromast hair cell protection against Cisplatin; type: in vivo, Danio rerio
Description: Danio rerio experimental larvae were obtained by pair mating of adult fish maintained at Creighton University by standard methods approved by the Institutional Animal Care and Use Committee. […] We used Tg(pou4f3:mGFP) expressing a membrane bound GFP in HCs. Experimental fish were maintained at 28.5° C. in E3 media (5 mM NaCl, 0.17 mM KCl, 0.33 mM CaCl2) and […], pH 7.2). Animals were cryoanaesthetized after drug treatment and prior to fixation. The neuromasts inspected, S03 and 01-2, were part of the cranial system and included the otic, middle, and opercular neuromasts.
Subsequently, animals were transferred to E3 water for 5 hours and fixed in 4% paraformaldehyde (PFA) overnight (26). Neuromast HCs were immunolabeled with anti-otoferlin (HCS-1, DSHB) and anti-GFP (NB100-1614, Novus Biologicals). These two markers were used to detect and count neuromast HCs to reduce the chances of missing some of the HCs after the treatment since we previously noticed that incubation with the compounds can affect GFP expression more difficult to detect under a fluorescence microscope. Otic, middle, and opercular neuromasts were identified, and HCs at S03 (supraorbital line neuromast) and 01-2 (Otic line neuromasts) were manually counted using a Zeiss AxioSkop 2 fluorescence microscope with a 40× oil objective. Compounds were then evaluated on efficiency and potency, with the top-rated compounds showing high protection at lower concentrations.

FVB/NJ mice = test: Safety monitoring of drugs IP in FVB/NJ mice, with or without Cisplatin; type: in vivo, mouse
Description: To investigate the drugs' effects on mammalian auditory function in vivo, we first treated 5-7 weeks old FVB/NJ mice with […] drug candidates: Niclosamide (10 mg/kg/day), Ingenol (0.3 mg/kg/day), Elesclomol (5 mg/kg/day), for 4 consecutive days (IP) to monitor safety of the drugs. All tested doses were determined based on previous published data showing maximum non-toxic dose through intraperitoneal (IP) injection.
Baseline auditory brainstem response (ABR) were measured on 16 mice divided in 3 groups receiving Ingenol, Elesclomol, and Niclosamide. The mice received the drug doses described above, then on day 2 of drug injection mice also received 30 mg/kg Cisplatin (IP; 4 mice per group).

zebrafish neuromast HCs [2] = test: NMDA excitotoxicity in zebrafish neuromast hair cells; type: in vivo; details: 2 nM and 18 nM; 300 μM NMDA
Description: Now referring to FIGS. […], representative samples of the mouse HCs at 32 kHz, the most protected frequency region shown by ABR measurement (FIG. 4E). […] Niclosamide protects NMDA-induced hair cell loss in zebrafish. Application of the N-methyl-d-aspartate (NMDA) to zebrafish neuromast HCs has also been used to mimic glutamate excitotoxicity associated with noise exposure (Katie S. Kindt and Lavinia Sheets, 2018). The results of the HC count following exposure of zebrafish to 300 μM NMDA led to hair-cell loss.
Now referring to FIGS. 5A-5F Niclosamide had protective effects on NIHL in Zebrafish and FVB/NJ mice in vivo. CIHL and NIHL share mechanistic commonalities. Now referring to FIG. 5A, to test whether Niclosamide protects HCs from excitotoxic trauma, a zebrafish model that mimics noise damage was employed, Zebrafish were exposed to the ionotropic glutamate receptor agonist, N-methyl-D-aspartate (NMDA), previously shown to cause progressive HC loss in zebrafish lateral-line organs (Sheets, 2017) with or without niclosamide. 5-dpf larvae were preincubated with 300 μM NMDA for 50 min followed by 2 hours incubation with niclosamide at 2 nM and 18.3 nM.

[3] = HPLC analysis of interaction between Niclosamide and Cisplatin in vitro; type: physicochemical; details: ratios 1:1 and 1:10, 37° C.
Description: A simple explanation of Niclosamide's protection against CIHL is that it directly inactivates Cisplatin, similar to several otoprotectants in clinical trials (STS, ebselen, etc.). To investigate any possible interaction between Niclosamide and Cisplatin, we developed an HPLC method in vitro. The method may use the following: HPLC: Shimadzu Prominence-i LC-2030C, column: Agilent Eclipse Plus C18, PN-959961-902, 5% ACN, 95% water: 0-2 min; continuous increase of ACN to 95%: 2-12 min; hold at 95% ACN: 12-17 min; continuous decrease of ACN to 5%: 17-20 min, flow rate: 1 mL/min; Temperature 37° C., run time: 20 min. Additional parts of the method may use a stock solution of 1 mg/ml prepared in suitable solvent and mixed to create a ratio of cisplatin and niclosamide at 1:1 and 1:10 in the final injecting solution, along with the pure cisplatin and niclosamide. […] Our in vitro results are consistent with its synergistic interaction with Cisplatin in RCC xenograft models and its protection against noise injury.

SHP77 = test: Survival of SHP77 cells with or without Cisplatin and Niclosamide; type: cell-based; details: 10 nM
Description: (§1) Now referring to FIG. 8, In vitro model of […] incubated with or without Cisplatin and 10 nM of Niclosamide. Cells were maintained in culture with the aid of Matrigel as previously described in Kelley and Driver, Curr. Protoc. Neurosci. Ch.(4); Unit(4); 34.1-10 (2010). After cells had been in culture for 1 d, growth medium DMEM (12430-054; GIB CO Life Technologies, with 1% FBS [16000-044; GIB CO Life Technologies] and 50 μg/ml ampicillin) with or without test compounds may be added for preincubation for 1 hr. at 37° C. in 5% Co2, and may be followed by incubation with 50 μM Cisplatin (479306; Sigma-Aldrich) with or without the test compound in growth medium for 24 hr. at 37° C. A Cisplatin concentration of 50 μM may be used for the explant assay due to its consistent showing of decreases outer hair cells by about −40% in the mouse cochlea after 24 hours. Cochlea may be fixed in 4% PFA and stained for actin with Alex Fluor 568 phalloidin to determine the viability of the HCs. Cochlea may also be stained by DAPI, FM1-43 dye uptake, and immunohistochemical staining for known HC markers (including parvalbumin and myosin 7a. Cochlea may be imaged by confocal microscopy. Two 160-μm regions from middle turns may be photographed, and the number of intact HCs can be counted.

A549 = test: Survival of A549 cells with or without Cisplatin and Niclosamide; type: cell-based; details: 10 nM
Description: as §1

[4] = following 2,000 mg oral use; cited from earlier work
[5] = 20 mg/kg/day IP, 4 consecutive days

O=C(Nc1ccc([N+](=O)[O-])cc1Cl)c1cc(Cl)ccc1O [Niclosamide, 5-chloro-N-(2-chloro-4-nitrophenyl)-2-hydroxy-benzamide]
highest level of protection of neuromast HCs (zebrafish neuromast HCs [1]; 0.002 μM, lowest concentration tested, normalized to Cisplatin only (0%) and DMSO (100%)): ~50%
hair cell loss (fluorescent staining of neuromasts) (zebrafish neuromast HCs [1]; 0.002-13.3 μM, Cisplatin-treated zebrafish): reduce hair cell loss
Cisplatin damage in zebrafish HCs at S03 and O1-2 (zebrafish neuromast HCs [1]; pretreated with 0.002 μM): significantly reduced Cisplatin damage
clinical signs (FVB/NJ mice; [5]): sign of pain and distress including mouse hunch
weight loss (FVB/NJ mice; [5]): 20-30%
weight loss, pain and distress (FVB/NJ mice; Niclosamide 10, Ingenol 0.3, Elesclomol 5 mg/kg/day IP, 4 consecutive days): None of the mice showed reduced weight loss or signs of pain and distress
general toxicity versus Cisplatin alone (FVB/NJ mice; combination with Cisplatin 30 mg/kg single injection): no general toxicity
weight loss (FVB/NJ mice; drug IP daily plus 30 mg/kg Cisplatin IP on day 2): less than 10%
weight loss or abnormal behavior (FVB/NJ mice; maximum IP doses approved by IACUC): no weight loss or abnormal behavior
survival (FVB/NJ mice; plus 30 mg/kg Cisplatin, through day 5 post-Cisplatin injection): all survived
HC survival after NMDA (zebrafish neuromast HCs [2]): significantly increased HC survival
chemical interaction with Cisplatin (third HPLC peak) [3]: no interaction between Niclosamide and Cisplatin
effect on Cisplatin-tumor killing activity (SHP77): did not affect Cisplatin-tumor killing activity
effect on Cisplatin-tumor killing activity (A549): did not affect Cisplatin-tumor killing activity
Cmax [4]: 18 µM

From patent US12661362B2, “Methods for the prevention and treatment of hearing loss” (Ting Therapeutics LLC, priority 2020, dated 2026)
